According to patent publication US20250269093A1, “METHODS OF ENHANCING ANTIMICROBIAL EFFICACY OF LOCAL ANESTHETICS” (Chinook Contract Research Inc., priority 2023, published 2025):
Structures can show the parent of a compound that is named as a salt. Where two headings read alike, the source gives them in different places.

How the values were obtained:
P. aeruginosa ATCC 15442 = assay: Broth microdilution assay (MIC); format: cell-based, Pseudomonas aeruginosa; settings: for MIC: broth microdilution, 16-24 hours at 37° C.; for MIC +1 mg/mL LD: titrated in a constant concentration of 1 mg/mL lidocaine base
Procedure: (§1) Broth Microdilution Assay: A stock solution of each test article was serially diluted in a 96-well plate for a final volume of 0.1 mL per well. […] Turbidity was assessed after 16-24 hours at 37° C. (100 rpm).
(§2) Incubated at 37° C. at 200 rpm for approximately 2 hours to fully dissolve the powder. Filter sterilized.
(§3) Prepared a 2× stock of lidocaine HCl by dissolving 500 mg per 10 mL OSB (=50 mg/mL). Filter sterilized.
(§4) Serially diluted (2-fold series) the contents of rows B to G: Removed 100 μL from row B to row C and mixed by pipetting up and down at least 3 times. Discarded the tips.
(§5) For bacteria: Mixed 10 μL O/N with 990 μL OSB for ˜10^7 CFU/mL, then mixed 100 μL of the ˜10^7 CFU/mL culture with 9.90 mL BGM for ˜10^5 CFU/mL. • b. For yeast: Mixed 100 μL O/N with 9.90 mL BGM for ˜10^5 CFU/mL.
(§6) Immediately poured the ˜10^5 CFU/mL inoculum into a sterile reagent reservoir and used a multichannel pipettor to aliquot 100 μL into each well of the 96-well plates, excluding row H. Mixed by pipetting up and down at least 3 times. Added uninoculated BGM to row H.
(§7) Sealed the plates in sandwich bags and incubated at 37±1° C. for 16-24 hours (100 rpm).
(§8) Visually scored for growth, which appeared as turbidity or as a deposit of cells at the bottom of a well.
(§9) Determined the MIC (minimum inhibitory concentration) for each organism. The MIC was defined as the minimum concentration that inhibited growth of the organism.
(§10) MIC determination from Broth Microdilution: MIC results were determined following the overnight incubation of the broth microdilution plates. Ensured that the SC wells were free of growth and that the GC wells were positive for growth. To determine the minimum inhibitory concentration (MIC) values, checked for turbidity in the wells of the challenge plate and scored. The MIC was defined as the minimum concentration that inhibited visible growth of the organism.

C. albicans ATCC 10231 = assay: Broth microdilution assay (MIC); format: cell-based, Candida albicans; settings: for MIC: broth microdilution, 16-24 hours at 37° C.; for MIC +1 mg/mL LD: titrated in a constant concentration of 1 mg/mL lidocaine base
Procedure: as §1, §2, §3, §4, §5, §6, §7, §8, §9, §10

E. faecalis ATCC 51575 = assay: Broth microdilution assay (MIC); format: cell-based, Enterococcus faecalis; settings: for MIC: broth microdilution, 16-24 hours at 37° C.; for MIC +1 mg/mL LD: titrated in a constant concentration of 1 mg/mL lidocaine base
Procedure: as §1, §2, §3, §4, §5, §6, §7, §8, §9, §10

S. aureus ATCC 29213 [1] = assay: Broth microdilution assay (MIC); format: cell-based, Staphylococcus aureus; settings: for MIC: broth microdilution, 16-24 hours at 37° C.; for MIC +1 mg/mL LD: titrated in a constant concentration of 1 mg/mL lidocaine base
Procedure: as §1, §2, §3, §4, §5, §6, §7, §8, §9, §10

[2] = system: all seven tested organisms; assay: Broth microdilution assay (MIC), summary over the panel; format: cell-based; settings: for MIC (plus lidocaine base): all seven organisms, constant concentration of 1 mg/mL lidocaine base
Procedure: as §1
Prepared a 2× stock solution of lidocaine by dissolving 20 mg of free-base lidocaine per 10 mL of OSB (=2 mg/mL). Incubated at 37° C. at 200 rpm for approximately 2 hours to fully dissolve the powder. Filter sterilized.
as §3
Prepared 2× stock (=8% v/v) of DMSO or NMP by mixing 800 μL of either with 9.2 mL of OSB or with OSB plus 2 mg/mL lidocaine base.
Aliquoted 200 μL of the 2× stock of LD-HCl, LD base, DMSO, NMP, DMSO+LD base, or NMP+LD base into wells B1-2, B3-4, B5-6, B7-8, B9-10, or B11-12, respectively.
as §4, §5, §6, §7, §8, §9
MIC determination from Broth Microdilution: MIC results were determined following the overnight incubation of the broth microdilution plates. […] To determine the minimum inhibitory concentration (MIC) values, checked for turbidity in the wells of the challenge plate and scored. […]

P. mirabilis ATCC 29906 = assay: Broth microdilution assay (MIC); format: cell-based, Proteus mirabilis; settings: for MIC: broth microdilution, 16-24 hours at 37° C.; for MIC +1 mg/mL LD: titrated in a constant concentration of 1 mg/mL lidocaine base
Procedure: as §1, §2, §3, §4, §5, §6, §7, §8, §9, §10

[3] = system: S. epidermidis ATCC 35984; assay: Broth microdilution assay (MIC); format: cell-based, Staphylococcus epidermidis; settings: for MIC: broth microdilution, 16-24 hours at 37° C.; for MIC +1 mg/mL LD: titrated in a constant concentration of 1 mg/mL lidocaine base
Procedure: as §1, §2, §3, §4, §5, §6, §7, §8, §9, §10

E. coli ATCC 25922 [4] = assay: Broth microdilution assay (MIC); format: cell-based, Escherichia coli; settings: for MIC: broth microdilution, 16-24 hours at 37° C.; for MIC +1 mg/mL LD: titrated in a constant concentration of 1 mg/mL lidocaine base
Procedure: as §1, §2, §3, §4, §5, §6, §7, §8, §9, §10

S. aureus ATCC 29213 [5] = settings: cited from earlier work
P. aeruginosa ATCC 27853 = settings: cited from earlier work
E. coli ATCC 25922 [6] = settings: cited from earlier work

Question: Which MIC (P. aeruginosa ATCC 15442) does the source give for `C[S+](C)[O-]` [DMSO, Dimethyl Sulfoxide] here?
Answer: >4.00 % v/v

Question: What about the “MIC +1 mg/mL LD” value (P. aeruginosa ATCC 15442) of the same compound?
Answer: >4.00 % v/v

Question: And the MIC (C. albicans ATCC 10231)?
Answer: >4.00 % v/v

Question: And the “MIC +1 mg/mL LD” value (C. albicans ATCC 10231)?
Answer: >4.00 % v/v

Question: What about the MIC (E. faecalis ATCC 51575) of the same compound?
Answer: >4.00 % v/v

Question: And the “MIC +1 mg/mL LD” value (E. faecalis ATCC 51575)?
Answer: >4.00 % v/v

Question: What about the MIC (S. aureus ATCC 29213 [1]) of the same compound?
Answer: >4.00 % v/v

Question: What about the “MIC +1 mg/mL LD” value (S. aureus ATCC 29213 [1]) of the same compound?
Answer: >4.00 % v/v

Question: What about the “MIC (plus lidocaine base)” value [2] of the same compound?
Answer: > 4 % v/v

Question: What about the MIC (P. mirabilis ATCC 29906) of the same compound?
Answer: >4.00 % v/v

Question: And the “MIC +1 mg/mL LD” value (P. mirabilis ATCC 29906)?
Answer: >4.00 % v/v

Question: What about the MIC [3] of the same compound?
Answer: >4.00 % v/v

Question: And the “MIC +1 mg/mL LD” value [3]?
Answer: >4.00 % v/v

Question: What about the MIC (E. coli ATCC 25922 [4]) of the same compound?
Answer: >4.00 % v/v

Question: What about the “MIC +1 mg/mL LD” value (E. coli ATCC 25922 [4]) of the same compound?
Answer: >4.00 % v/v

Question: Which results are given for `CCN(CC)CC(=O)Nc1c(C)cccc1C` [LD-B, Free base lidocaine]?
Answer: MIC (P. aeruginosa ATCC 15442): >1.00 mg/mL; MIC (C. albicans ATCC 10231): >1.00 mg/mL; MIC (E. faecalis ATCC 51575): >1.00 mg/mL; MIC (S. aureus ATCC 29213 [1]): >1.00 mg/mL; MIC (P. mirabilis ATCC 29906): >1.00 mg/mL; MIC [3]: >1.00 mg/mL; MIC (E. coli ATCC 25922 [4]): >1.00 mg/mL

Question: For `CCN(CC)CC(=O)Nc1c(C)cccc1C` [LD-HCl, Lidocaine hydrochloride], which MIC (P. aeruginosa ATCC 15442; Pseudomonas aeruginosa, ATCC15442, read-out: MIC) is on record?
Answer: 25 mg/mL

Question: And the “MIC (published literature)” value (S. aureus ATCC 29213 [5])?
Answer: 20.0 mg/mL

Question: And the “MIC (published literature)” value (P. aeruginosa ATCC 27853)?
Answer: > 20.0 mg/mL

Question: And the “MIC (published literature)” value (E. coli ATCC 25922 [6])?
Answer: 5.00 mg/mL

Question: And the MIC (C. albicans ATCC 10231; Candida albicans, ATCC10231, read-out: MIC)?
Answer: 12.5 mg/mL

Question: And the MIC (E. faecalis ATCC 51575; Enterococcus faecalis, ATCC51575, read-out: MIC)?
Answer: 25 mg/mL

Question: What about the MIC (S. aureus ATCC 29213 [1]; Staphylococcus aureus, ATCC29213, read-out: MIC) of the same compound?
Answer: 12.5 mg/mL

Question: What about the MIC (P. mirabilis ATCC 29906; Proteus mirabilis, ATCC29906, read-out: MIC) of the same compound?
Answer: 12.5 mg/mL

Question: And the MIC ([3]; Staphylococcus epidermidis, ATCC35984, read-out: MIC)?
Answer: 25 mg/mL

Question: What about the MIC (E. coli ATCC 25922 [4]; Escherichia coli, ATCC25922, read-out: MIC) of the same compound?
Answer: 6.25 mg/mL

Question: Which results are given for `CN1CCCC1=O` [NMP, n-methyl-2-pyrrolidone]?
Answer: MIC (P. aeruginosa ATCC 15442): 4.00 % v/v; MIC +1 mg/mL LD (P. aeruginosa ATCC 15442): 4.00 % v/v; MIC (C. albicans ATCC 10231): 4.00 % v/v; MIC +1 mg/mL LD (C. albicans ATCC 10231): 4.00 % v/v; MIC (E. faecalis ATCC 51575): 4.00 % v/v; MIC +1 mg/mL LD (E. faecalis ATCC 51575): 4.00 % v/v; MIC (S. aureus ATCC 29213 [1]): 4.00 % v/v; MIC +1 mg/mL LD (S. aureus ATCC 29213 [1]): 4.00 % v/v; MIC (plus lidocaine base) [2]: 4 % v/v; MIC ([2]; for all seven tested organisms, maximum challenge concentration 4% v/v): 4 % v/v; MIC (P. mirabilis ATCC 29906): 4.00 % v/v; MIC +1 mg/mL LD (P. mirabilis ATCC 29906): 4.00 % v/v; MIC [3]: 4.00 % v/v; MIC +1 mg/mL LD [3]: 4.00 % v/v; MIC (E. coli ATCC 25922 [4]): 4.00 % v/v; MIC +1 mg/mL LD (E. coli ATCC 25922 [4]): 4.00 % v/v
